Results from patent publication US20050032866A1, “The use of 5ht4 receptor antagonists in the prophylaxis or treatment of certain cardiovascular conditions” (priority 2000, published 2005).
Where “and” joins values, the source holds several entries; their conditions need not be identical. Identical values can stand only once.

How the values were obtained:
[1] = system: 5-HT-induced atrial arrhythmia in anesthetized Yucatan minipigs; experiment: 5-HT-induced atrial fibrillation / atrial remodelling after rapid atrial pacing in anesthetized Yucatan minipigs; format: in vivo, Yucatan minipig; settings: for AERP (Example 2): sensitized pigs, predrug 90±3; for AF inducibility: 64±6% prior to treatment, 10 bursts of pacing; for mean duration of AF episodes: pre-drug 1.9±0.4
Protocol: The antiarrhythmic efficacy of SB-207266 (0.3 and 1.0 mg/kg, intravenous) was evaluated on the inducibility of AF in a model of 5-HT-induced atrial arrhythmia in anesthetized Yucatan minipigs. […] The atrial effective refractory period (AERP) and AF inducibility were determined during programmed stimulation and burst electrical pacing.
Animals. Male Yucatan minipigs (12-17 kg weight) were obtained from Charles River (Saint-Aubin les Elboeuf, France) and were maintained at rest over a 2-week acclimatision period prior to experiments.
Surgical Preparation of Animals. The minipigs (Charles River, France) were fasted and premedicated (2 mg/kg diazepam+15 mg/kg ketamine, i.m.) before induction of anesthesia by isoflurane inhalation (5% for induction followed by 0.5 to 1.5% for technical preparation) in a mixture of 25% O2 and 75% N2O. The long term anesthesia was maintained with an i.v. infusion of sodium pentobarbital (12 mg/kg/h). A mechanical ventilator (Harvard pump 613) was used to provide artificial respiration during the left thoracotomy in order to keep arterial blood gases and pH within the normal limits (ABL 500 analyzer). Fluid filled catheters were placed in the femoral artery and vein to measure the arterial pressure (P23 ID transducer) and for drug administrations, respectively. Leads II, III and a precordial lead of electrocardiogram were placed for monitoring of standard ECG parameters. Two pairs of electrodes were hooked to the left atrial wall for subsequent stimulation (S8800 stimulator and SIU-5 unit) and for measurement of an atrial electrogram.
Sensitization of the Atrial Tissue. The left atrial appendage was sensitized by rapid atrial pacing (200 ms cycle length over 3 hours) to generate an initial electrical remodelling of the tissue [A. Goette et al., 1996, Circulation, 94, 2968-2974]. […] The cellulose patch retains the 5-HT in contact with the tissue.
Electrophysiologic Study. The atrial effective refractory period (AERP) was determined using a conventional single extrastimulus technique as previously described [A. Bril, B. Gout et al., J. Pharmacol. Exp. Ther., 1996, 276, 637-646.]. Briefly, a 8-stimulus train at a basic cycle length 20% shorter than the sinus rhythm was followed by a single premature extrastimulus (4 ms, 1.5 times threshold current) introduced at progressively shorter coupling intervals from the atrial pacing until no atrial response was obtained.
After determination of AERP, the atrial fibrillation (AF) challenge was started. AF was induced following atrial pacing by a 2 sec-burst of stimulation (basic cycle length 20 ms cycle length, 2 ms duration, twice the diastolic threshold) introduced within the vulnerable window (AERP+10 ms). AF was defined as at least 1 sec of irregular electrical activity measured on atrial electrogram.
Study Design and Dosing. After assessment of reproducible baseline responses of animals (3 successive AF challenges), the minipigs were randomly assigned to receive either sterile distilled water (vehicle group, n=7), or escalating doses of SB-207266 (0.3 and 1.0 mg/kg, n=7) given i.v. over a 10 min period 15 min before determination of AERP and subsequent AF challenge. SB-207266 was dissolved in sterile distilled water and adequate drug solutions were prepared every day. Treatment with vehicle represented a volume of distilled water similar to that used for drug solution (10 ml). Each dose of SB-207266 was administered at 45 min intervals to allow recovery of animals from previous burst pacing challenge.
Measurements and Calculations. All parameters were monitored on a chart paper polyrecorder (TA-5000) and digital recording was performed throughout the protocol (DTR 1800). When measured, heart rate was calculated from the ECG and the mean arterial blood pressure was calculated from the pulse pressure. A corrected QT was determined according to the Bazett's formula (QTc=QT (ms)/RR (sec)^1/2). […]

[2] = system: 5-HT-induced atrial arrhythmia in anesthetized Yucatan minipigs; experiment: as above; format: in vivo, Yucatan minipig; settings: 5-HT alone, topical application for 3 hours, no pacing; control 110.2±1.9; not significant; n=6
5-HT4A receptors = 5-HT4A receptors (Homo sapiens, UniProt Q13639); settings: cited from earlier work
5-HT4A receptors, sequence (Q13639 1-387 isoform Q13639-2): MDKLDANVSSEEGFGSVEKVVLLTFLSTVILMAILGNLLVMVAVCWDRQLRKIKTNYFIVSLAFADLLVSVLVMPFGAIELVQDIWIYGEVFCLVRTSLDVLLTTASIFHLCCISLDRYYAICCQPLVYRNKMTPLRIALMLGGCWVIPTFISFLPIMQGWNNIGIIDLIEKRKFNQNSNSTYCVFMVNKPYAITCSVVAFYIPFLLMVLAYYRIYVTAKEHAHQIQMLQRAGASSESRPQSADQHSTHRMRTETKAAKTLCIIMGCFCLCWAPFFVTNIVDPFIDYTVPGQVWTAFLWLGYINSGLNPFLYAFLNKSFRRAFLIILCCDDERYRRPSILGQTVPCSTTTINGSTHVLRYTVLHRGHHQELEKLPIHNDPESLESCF

5-HT3A receptors = 5-HT3A receptors (Homo sapiens, UniProt P46098); settings: cited from earlier work
5-HT3A receptors, sequence (P46098 24-478): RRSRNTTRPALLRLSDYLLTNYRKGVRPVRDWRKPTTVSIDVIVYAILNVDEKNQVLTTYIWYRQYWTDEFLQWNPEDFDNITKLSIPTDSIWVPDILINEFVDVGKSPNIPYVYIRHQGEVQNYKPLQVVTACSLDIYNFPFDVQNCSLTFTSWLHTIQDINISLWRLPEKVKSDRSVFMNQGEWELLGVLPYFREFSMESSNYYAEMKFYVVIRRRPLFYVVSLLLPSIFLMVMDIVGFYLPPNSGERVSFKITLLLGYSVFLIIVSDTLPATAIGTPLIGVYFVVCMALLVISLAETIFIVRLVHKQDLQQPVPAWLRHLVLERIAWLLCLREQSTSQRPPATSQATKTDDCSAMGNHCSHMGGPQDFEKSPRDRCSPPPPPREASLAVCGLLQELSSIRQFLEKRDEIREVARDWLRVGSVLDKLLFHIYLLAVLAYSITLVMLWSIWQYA

5-HT4B receptor = 5-HT4B receptor (Homo sapiens, UniProt Q13639); experiment: 5-HT4B receptor antagonism; format: biochemical
5-HT4B receptor, sequence (Q13639 whole entry): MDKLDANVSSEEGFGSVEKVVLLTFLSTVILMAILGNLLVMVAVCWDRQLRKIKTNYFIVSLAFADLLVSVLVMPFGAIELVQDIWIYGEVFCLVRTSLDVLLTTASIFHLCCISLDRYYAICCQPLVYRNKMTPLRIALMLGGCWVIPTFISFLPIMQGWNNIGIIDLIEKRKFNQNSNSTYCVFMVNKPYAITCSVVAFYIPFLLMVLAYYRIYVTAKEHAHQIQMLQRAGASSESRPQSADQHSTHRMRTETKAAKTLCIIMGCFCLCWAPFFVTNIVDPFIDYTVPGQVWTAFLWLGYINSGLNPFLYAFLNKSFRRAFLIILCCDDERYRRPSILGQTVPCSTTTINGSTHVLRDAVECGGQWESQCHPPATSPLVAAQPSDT

[3] = plasma pharmacokinetics of SB 207266 on once daily oral dosing; format: in vivo, human
[4] = preliminary studies of side-effects at human daily oral doses; format: in vivo; settings: corresponds to about 1.6 to 1.7 mg/kg/day or more
[5] = plasma concentration of SB-207266 in minipig (LC/MS/MS); format: in vivo, Yucatan minipig; settings: 5 min after end of bolus
Protocol: Evaluation of Plasma Concentration of SB-207266. For each AF challenge, blood samples were collected on EDTA (6%) 5 min after the end of the bolus administration of drug (time point 15 min, see asterisks in FIG. 4A) and centrifuged (1500×g, 10 min at 4° C.). The plasma samples were stored at −80° C. for subsequent analysis. Plasma samples were not collected in the vehicle group. The determination of plasma concentration of SB-207266 was performed by LC/MS/MS with a LLQ for this assay of 5 ng/ml in the pig.

5-HT4 receptor = target: T1, 5-HT4 receptor (Cavia porcellus, UniProt O70528); experiment: guinea pig distal colon longitudinal muscle-myenteric plexus, 5-HT-evoked contraction; format: cell-based
T1 construct: Longitudinal muscle-myenteric plexus preparations, approximately 3 cm long, are obtained from the distal colon region; from tissue; host or cells: guinea-pig distal colon longitudinal muscle-myenteric plexus
T1 sequence (O70528 whole entry): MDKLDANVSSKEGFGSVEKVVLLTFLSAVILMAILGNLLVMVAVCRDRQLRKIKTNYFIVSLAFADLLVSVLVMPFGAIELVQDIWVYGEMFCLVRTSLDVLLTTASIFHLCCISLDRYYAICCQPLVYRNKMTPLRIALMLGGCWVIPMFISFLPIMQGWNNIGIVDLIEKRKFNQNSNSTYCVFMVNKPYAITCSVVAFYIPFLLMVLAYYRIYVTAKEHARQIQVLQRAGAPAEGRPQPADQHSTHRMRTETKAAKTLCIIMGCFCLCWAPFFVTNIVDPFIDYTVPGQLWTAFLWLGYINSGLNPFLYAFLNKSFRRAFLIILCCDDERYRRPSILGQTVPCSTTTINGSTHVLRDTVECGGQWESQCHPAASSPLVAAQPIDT
Protocol: Male guinea-pigs, weighing 250-400 g are used.
In some experiments, this tissue was dosed alternately with an approximately equi-effective concentration of the nicotine receptor stimulant, dimethylphenylpiperazinium (DMPP).

[6] = target: piglet hippocampal 5-HT4 receptors (Sus scrofa, UniProt Q6Q253); experiment: binding to piglet hippocampal 5-HT4 receptors, 125I-labelled SB-207710; settings: piglet hippocampal membranes, n=4
piglet hippocampal 5-HT4 receptors, sequence (Q6Q253 1-402): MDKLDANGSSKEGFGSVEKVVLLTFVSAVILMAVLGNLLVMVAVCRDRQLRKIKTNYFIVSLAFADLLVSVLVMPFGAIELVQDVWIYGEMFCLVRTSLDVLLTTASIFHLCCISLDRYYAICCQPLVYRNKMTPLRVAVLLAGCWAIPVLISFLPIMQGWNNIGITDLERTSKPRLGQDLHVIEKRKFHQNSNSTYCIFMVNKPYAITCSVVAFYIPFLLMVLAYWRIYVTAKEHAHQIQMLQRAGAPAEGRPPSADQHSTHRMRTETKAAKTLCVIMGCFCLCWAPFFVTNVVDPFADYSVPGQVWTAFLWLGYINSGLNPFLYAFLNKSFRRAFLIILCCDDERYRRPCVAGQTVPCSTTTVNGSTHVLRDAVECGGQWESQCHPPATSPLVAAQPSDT

5-HT1A = 5-HT1A (Homo sapiens, UniProt P08908); experiment: radioligand selectivity, 5-HT1A receptors; format: binding; settings: read-out: pKi at 5-HT1A (converted)
5-HT1A, sequence (P08908 whole entry, species assumed): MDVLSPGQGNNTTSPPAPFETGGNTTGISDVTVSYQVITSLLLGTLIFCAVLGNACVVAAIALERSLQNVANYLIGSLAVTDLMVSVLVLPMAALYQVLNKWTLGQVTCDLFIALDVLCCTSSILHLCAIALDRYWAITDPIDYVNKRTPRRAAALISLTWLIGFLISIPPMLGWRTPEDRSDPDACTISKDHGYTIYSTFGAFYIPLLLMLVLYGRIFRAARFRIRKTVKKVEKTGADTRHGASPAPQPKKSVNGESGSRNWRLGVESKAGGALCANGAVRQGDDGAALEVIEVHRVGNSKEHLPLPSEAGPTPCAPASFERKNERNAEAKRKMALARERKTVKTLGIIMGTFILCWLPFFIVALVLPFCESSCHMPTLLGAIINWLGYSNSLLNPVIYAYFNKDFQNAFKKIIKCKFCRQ

5-HT1C = 5-HT1C (Homo sapiens, UniProt P28335); experiment: radioligand selectivity, 5-HT1C receptors; format: binding; settings: read-out: pKi at 5-HT1C (converted)
5-HT1C, sequence (P28335 33-458, species assumed): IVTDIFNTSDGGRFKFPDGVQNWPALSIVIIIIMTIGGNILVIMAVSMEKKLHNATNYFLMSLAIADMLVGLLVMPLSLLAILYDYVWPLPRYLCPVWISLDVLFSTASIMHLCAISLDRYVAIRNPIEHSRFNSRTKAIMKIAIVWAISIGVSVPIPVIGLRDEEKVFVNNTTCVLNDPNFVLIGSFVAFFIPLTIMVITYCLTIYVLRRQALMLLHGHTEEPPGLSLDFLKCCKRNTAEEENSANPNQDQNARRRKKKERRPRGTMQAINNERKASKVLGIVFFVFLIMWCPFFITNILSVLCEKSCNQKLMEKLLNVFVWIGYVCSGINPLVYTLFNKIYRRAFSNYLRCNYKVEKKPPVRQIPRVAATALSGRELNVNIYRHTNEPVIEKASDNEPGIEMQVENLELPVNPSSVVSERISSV

With `NCCc1c[nH]c2ccc(O)cc12` [5-HT, reference compound] the AERP ([1]; 5-HT applied after 3 h rapid atrial pacing, pacing alone 93.6±3.6) was 91.8 ± 3.3 ms, the “AERP (Example 1)” value ([1]; rapid atrial pacing and application of 5-HT, before vehicle or drug, from 111.6±2.6) was 90.9 ± 2.1 ms and the AERP [2] was 104.0 ± 6.5 ms.

For `COc1[nH]c2ccc(F)cc2c1C(=O)OCC1CCN(CCNS(C)(=O)=O)CC1` [GR 125487, [1-[2-[(Methylsulphonyl)amino]ethyl]-4-piperidinyl]methyl 5-fluoro-2-methoxy-1H-indole-3-carboxylate], the “pKi at 5-HT4A receptors” value (5-HT4A receptors) is listed as 10.0 and the “pKi at 5-HT3A receptors” value (5-HT3A receptors) is listed as < 6.5.

For `Cc1noc(-c2ccccc2NC(=O)OCC2CCN(CCNS(C)(=O)=O)CC2)n1` [GR 138897, [1-[2-[(Methylsulphonyl)amino]ethyl]-4-piperidinyl]methyl[2-(3-methyl-1,2,4-oxadiazol-5-yl)phenyl]carbamate], the “pKi at 5-HT4A receptors” value (5-HT4A receptors) is given as 10.3 and the “pKi at 5-HT3A receptors” value (5-HT3A receptors) is given as < 5.0.

With `CCCCN1CCC(CNC(=O)c2c3n(c4ccccc24)CCCO3)CC1` [SB 207266, N-[(1-^nbutyl-4-piperidinyl)methyl]-3,4-dihydro-2H-[1,3]oxazino[3,2-a]indole-10-carboxamide] the 5-HT4B receptor antagonism (5-HT4B receptor) was 5-HT4B antagonist and found to antagonise 5HT4B receptors, the half-life ([3]; human, plasma, oral, read-out: elimination half-life T½) was 20 to 24 h and the “time to reach steady-state plasma concentrations” value ([3]; once daily dosing) was 4 to 5 days. The “plasma concentration on day 4 as share of the steady-state plasma concentration” value ([3]; once daily dosing, day 4) was “about 90%”, the extent of accumulation ([3]; once daily oral dosing) was “approximately 1.5 fold” and the “human daily oral dose that might give rise to certain side-effects” value [4] was ≥ 120 mg. For the same molecule, the “AERP (Example 1)” value ([1]; 0.3 mg/kg i.v., after pacing and 5-HT, pre-drug 90.0±2.7, p<0.01 vs vehicle) was 102.3 ± 2.7 ms, the “AERP (Example 2)” value ([1]; 0.3 mg/kg i.v.) was 102 ± 3 ms and the AF inducibility ([1]; 0.3 mg/kg i.v.) was 46±11%. The “mean duration of AF episodes” value ([1]; 0.3 mg/kg i.v.) was 1.1 ± 0.4 s and 1.1 ± 0.2 s, the “decrease in AERP caused by rapid atrial pacing plus 5-HT application” value ([1]; 1.0 mg/kg i.v.) was “fully restored” and the “AERP (Example 1)” value ([1]; 1.0 mg/kg i.v., after pacing and 5-HT, pre-drug 90.0±2.7, p<0.01 vs vehicle) was 110.0 ± 3.6 ms. For the same molecule, the “AERP (Example 2)” value ([1]; 1.0 mg/kg i.v.) was 110 ± 4 ms, the AF inducibility ([1]; 1.0 mg/kg i.v.) was 30±9% and the “mean duration of AF episodes” value ([1]; 1.0 mg/kg i.v.) was “No further reduction”. The “plasma level of SB-207266” value ([5]; 0.3 mg/kg i.v., n=6) was 137.7 ± 15.2 ng/mL, the “plasma level of SB-207266” value ([5]; 1.0 mg/kg i.v., n=5) was 562.3 ± 40.1 ng/mL and the “5-HT4 receptor antagonist activity in guinea pig colon” value (5-HT4 receptor) was “particularly good activity”.

For `CCCCN1CCC(COC(=O)c2cc(I)c(N)c3c2OCCO3)CC1` [SB-207710, (1-butyl-4-piperidyl)methyl 8-amino-7-iodo-1,4-benzodioxan-5-carboxylate], the Bmax of radioligand [6] was 16±3 fmol/mg protein, the Ki (5-HT1A) was ≥ 1000 nM and the Ki (5-HT1C) was ≥ 1000 nM.
